Reference: ChEMBL document CHEMBL1201862, “PubChem BioAssay data set” (2004)
Activity calls are given as the source filed them. For most assays here, no stated cut-off is given here; in the data, actives have a measured EC50 and inactives only a lower limit.

Key:
[1] = Luminescence Cell-Based Dose Response to Identify Activators of 5'UTR Stem-Loop Driven Prion Protein mRNA Translation in H4-C Neuroglioblastoma Cells. [Related pubchem assays: 1829 (Project Summary), 1814 (Primary HTS)]; assay type: functional
H4 = assay: Luminescence Cell-Based Dose Response HTS to Identify Activators of 5'UTR Stem-Loop Driven Prion Protein mRNA Translation in H4 Neuroglioblastoma Cells. [Related pubchem assays: 1829 (Project Summary), 1814 (Primary HTS)]; assay type: functional; details: Homo sapiens
[2] = Luminescence Cell-Based Dose Confirmation to Identify Activators of 5'UTR Stem-Loop Driven Alpha-Synuclein mRNA Translation in H4 Neuroglioblastoma Cells. [Related pubchem assays: 1829 (Project Summary), 1814 (Primary HTS)]; assay type: functional
[3] = target: T1, Nuclear receptor subfamily 0 group B member 1 (Homo sapiens, UniProt P51843); assay: Luminescence-based cell-based high throughput dose response assay for inhibitors of the orphan nuclear receptor subfamily 0, group B, member 1 (DAX1; NR0B1). [Related pubchem assays (depositor defined):AID504766, AID504790]; assay type: functional
T1 sequence (P51843 whole entry): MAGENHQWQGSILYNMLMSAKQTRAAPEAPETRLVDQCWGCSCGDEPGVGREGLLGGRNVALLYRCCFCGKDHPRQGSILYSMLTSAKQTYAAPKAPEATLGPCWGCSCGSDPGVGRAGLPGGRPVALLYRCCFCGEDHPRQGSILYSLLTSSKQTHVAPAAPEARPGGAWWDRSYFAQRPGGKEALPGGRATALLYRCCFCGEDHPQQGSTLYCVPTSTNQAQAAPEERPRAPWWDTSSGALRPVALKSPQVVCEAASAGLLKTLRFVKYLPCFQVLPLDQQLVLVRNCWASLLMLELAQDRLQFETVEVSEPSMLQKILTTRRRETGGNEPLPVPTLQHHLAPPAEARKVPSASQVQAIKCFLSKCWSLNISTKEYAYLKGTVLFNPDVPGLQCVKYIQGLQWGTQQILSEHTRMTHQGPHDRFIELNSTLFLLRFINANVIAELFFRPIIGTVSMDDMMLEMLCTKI

[4] = Luminescence Cell-Based Dose Response to Identify Activators of Luciferase Translation or Activity in H4-C Neuroglioblastoma Cells. [Related pubchem assays: 1829 (Project Summary), 1814 (Primary HTS)]; assay type: functional
[5] = Luminescence Cell-Based Dose Response HTS to Identify Activators of Luciferase Translation or Activity in H4 […] Cells. [Related pubchem assays: 1829 (Project Summary), 1814 (Primary HTS)]; assay type: functional
[6] = Luminescence Cell-Based Dose Confirmation HTS to Identify Activators of 5'UTR Stem-Loop Driven Alpha-Synuclein mRNA Translation in H4 Neuroglioblastoma Cells. [Related pubchem assays: 1829 (Project Summary), 1814 (Primary HTS)]; assay type: functional
HEK293 = assay: cells; assay type: functional, cell-based; details: Homo sapiens
[7] = NIH-3T3 fibroblast cytotoxicity, dose response, cytotoxicity control, cell-based, fluorescence, Alamar Blue, secondary assay (AID 2327); assay type: functional;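 further: NIH-3T3 mouse fibroblasts cultured with fluconazole at 8 µg/mL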
[8] = target: T2, Corticotropin-releasing factor receptor 2/Corticotropin-releasing factor-binding protein (Homo sapiens, UniProt P24387+Q13324); assay: activators of CRF receptor 2 with binding protein – uHTS hits, confirmation (AID 602473); assay type: functional; details: read-out: EC50_Mean
T2 sequence (Q13324 whole entry): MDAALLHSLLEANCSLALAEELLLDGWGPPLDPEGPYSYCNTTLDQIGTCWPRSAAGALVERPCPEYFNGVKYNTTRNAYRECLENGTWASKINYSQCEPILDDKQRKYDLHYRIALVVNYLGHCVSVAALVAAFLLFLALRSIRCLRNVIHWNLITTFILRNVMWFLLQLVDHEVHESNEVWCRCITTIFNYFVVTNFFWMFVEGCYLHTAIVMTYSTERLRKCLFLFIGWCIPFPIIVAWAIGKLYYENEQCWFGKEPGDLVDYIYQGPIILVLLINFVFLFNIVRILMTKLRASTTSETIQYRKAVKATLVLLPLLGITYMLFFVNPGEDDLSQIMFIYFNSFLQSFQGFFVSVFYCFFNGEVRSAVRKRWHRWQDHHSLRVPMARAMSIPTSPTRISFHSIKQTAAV
T2 sequence (P24387 whole entry): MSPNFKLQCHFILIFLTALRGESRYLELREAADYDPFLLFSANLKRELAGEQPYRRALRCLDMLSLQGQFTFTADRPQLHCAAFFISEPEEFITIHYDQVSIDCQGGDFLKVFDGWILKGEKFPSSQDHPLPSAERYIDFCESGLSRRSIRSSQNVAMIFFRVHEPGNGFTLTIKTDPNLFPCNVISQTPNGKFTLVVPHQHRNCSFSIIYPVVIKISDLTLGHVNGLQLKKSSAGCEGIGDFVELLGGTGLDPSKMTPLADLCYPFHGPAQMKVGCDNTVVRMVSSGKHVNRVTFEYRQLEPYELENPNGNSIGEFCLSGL

[9] = target: NACHT, LRR and PYD domains-containing protein 3 (Homo sapiens, UniProt Q96P20); assay: NALP3 inhibitors in yeast, dose response, luminescent (AID 488799); assay type: functional
NACHT, LRR and PYD domains-containing protein 3, sequence (Q96P20 whole entry, the tested form may be a part): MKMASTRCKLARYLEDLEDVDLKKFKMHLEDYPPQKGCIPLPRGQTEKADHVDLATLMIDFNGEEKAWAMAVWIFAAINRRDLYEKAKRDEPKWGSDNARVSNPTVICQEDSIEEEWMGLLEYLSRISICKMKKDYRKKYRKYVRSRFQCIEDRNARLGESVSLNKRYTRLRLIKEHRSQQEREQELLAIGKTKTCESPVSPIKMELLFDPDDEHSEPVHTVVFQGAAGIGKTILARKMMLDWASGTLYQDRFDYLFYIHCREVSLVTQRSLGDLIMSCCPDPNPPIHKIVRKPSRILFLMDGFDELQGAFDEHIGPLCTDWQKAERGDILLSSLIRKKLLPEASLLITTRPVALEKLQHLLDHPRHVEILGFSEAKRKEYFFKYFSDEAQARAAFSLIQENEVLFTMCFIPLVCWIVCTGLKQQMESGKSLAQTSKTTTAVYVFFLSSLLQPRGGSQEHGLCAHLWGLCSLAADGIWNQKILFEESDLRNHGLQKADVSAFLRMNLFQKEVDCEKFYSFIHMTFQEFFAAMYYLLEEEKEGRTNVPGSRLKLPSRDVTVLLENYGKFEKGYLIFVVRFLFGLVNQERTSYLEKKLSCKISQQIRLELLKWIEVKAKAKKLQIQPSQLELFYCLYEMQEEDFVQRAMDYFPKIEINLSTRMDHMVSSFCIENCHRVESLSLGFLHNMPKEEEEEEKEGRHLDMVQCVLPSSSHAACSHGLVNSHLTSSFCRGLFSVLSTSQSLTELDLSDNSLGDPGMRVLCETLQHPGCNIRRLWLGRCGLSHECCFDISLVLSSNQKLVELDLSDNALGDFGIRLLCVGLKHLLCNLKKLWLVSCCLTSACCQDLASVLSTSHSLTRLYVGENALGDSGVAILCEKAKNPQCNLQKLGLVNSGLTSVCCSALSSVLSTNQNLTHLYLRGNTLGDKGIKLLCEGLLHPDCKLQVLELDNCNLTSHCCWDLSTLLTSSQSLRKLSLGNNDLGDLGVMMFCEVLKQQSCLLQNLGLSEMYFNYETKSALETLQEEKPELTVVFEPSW

[10] = target: Serine/threonine-protein phosphatase (Candida dubliniensis (strain CD36 / CBS 7987 / NCPF 3949 / NRRLY-17841) (Yeast), UniProt B9W6M3); assay: blockers of CaCl2-induced CDRE-lacZ signaling – S. cerevisiae, luminescence, secondary, dose response (AID 2388); assay type: functional, cell-based;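 further: yeast reporter cells carrying a calcineurin-responsive lacZ construct stimulated with calcium chloride; luminescent beta-galactosidase reporter signal in whole cells rather than isolated phosphatase activity; potency for inhibition where a drop in reporter signal means calcineurin blockade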
Serine/threonine-protein phosphatase, sequence (B9W6M3 whole entry): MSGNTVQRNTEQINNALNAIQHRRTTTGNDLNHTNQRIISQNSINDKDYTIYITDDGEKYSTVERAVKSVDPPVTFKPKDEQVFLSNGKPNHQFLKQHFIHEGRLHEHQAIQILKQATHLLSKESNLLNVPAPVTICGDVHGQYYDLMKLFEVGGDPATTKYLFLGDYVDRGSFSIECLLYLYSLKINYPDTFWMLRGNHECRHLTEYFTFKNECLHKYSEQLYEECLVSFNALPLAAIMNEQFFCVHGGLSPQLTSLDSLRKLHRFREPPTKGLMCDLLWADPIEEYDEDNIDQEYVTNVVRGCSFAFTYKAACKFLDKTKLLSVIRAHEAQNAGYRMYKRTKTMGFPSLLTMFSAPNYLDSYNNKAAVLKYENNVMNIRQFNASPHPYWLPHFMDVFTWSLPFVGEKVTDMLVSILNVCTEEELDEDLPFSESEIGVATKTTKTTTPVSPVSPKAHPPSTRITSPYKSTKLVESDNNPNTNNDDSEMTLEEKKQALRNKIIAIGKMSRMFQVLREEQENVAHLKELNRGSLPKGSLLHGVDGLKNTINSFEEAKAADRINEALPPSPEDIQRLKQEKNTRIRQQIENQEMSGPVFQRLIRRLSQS

[11] = fluconazole-exposed Candida albicans growth modulators – fluorescence, retest, confirmation (AID 2467); assay type: functional, cell-based
[12] = target: ATP-dependent molecular chaperone HSP82 (Candida albicans (strain WO-1) (Yeast), UniProt C4YTQ8); assay: steroid-induced GRE reporter decrease in yeast – S. cerevisiae, luminescence, Hsp90 inhibitor project, dose response (AID 2400); assay type: functional, cell-based;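 further: beta-galactosidase luminescence from glucocorticoid response element reporter as proxy for Hsp90 function; inhibitor potency where signal loss means Hsp90 inhibition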
ATP-dependent molecular chaperone HSP82, sequence (C4YTQ8 whole entry, the tested form may be a part): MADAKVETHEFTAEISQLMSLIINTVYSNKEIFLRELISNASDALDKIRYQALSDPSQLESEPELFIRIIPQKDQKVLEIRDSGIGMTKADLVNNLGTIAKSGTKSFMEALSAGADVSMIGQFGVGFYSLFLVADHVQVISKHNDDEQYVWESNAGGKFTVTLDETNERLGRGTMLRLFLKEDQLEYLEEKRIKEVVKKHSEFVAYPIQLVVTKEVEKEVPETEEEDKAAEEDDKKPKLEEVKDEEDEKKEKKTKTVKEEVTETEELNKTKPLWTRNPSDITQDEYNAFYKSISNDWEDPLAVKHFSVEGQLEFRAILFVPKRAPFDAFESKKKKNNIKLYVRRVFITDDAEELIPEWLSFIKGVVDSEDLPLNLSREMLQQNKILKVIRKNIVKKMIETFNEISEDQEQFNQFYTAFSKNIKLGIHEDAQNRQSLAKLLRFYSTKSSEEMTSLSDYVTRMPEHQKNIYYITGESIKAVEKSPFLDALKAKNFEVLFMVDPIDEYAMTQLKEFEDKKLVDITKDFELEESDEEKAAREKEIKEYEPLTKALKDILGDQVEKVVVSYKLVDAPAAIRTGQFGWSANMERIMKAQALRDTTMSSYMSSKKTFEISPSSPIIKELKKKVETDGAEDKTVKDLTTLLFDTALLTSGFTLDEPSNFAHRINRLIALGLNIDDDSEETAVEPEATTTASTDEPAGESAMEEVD

Hexokinase HKDC1 = target: T3, Hexokinase HKDC1 (Homo sapiens, UniProt Q2TB90); assay: SAR analysis of small molecule inhibitors of hexokinase domain containing I (HKDC1). [Related pubchem assays (depositor defined):AID493160, AID493190]; assay type: functional
T3 sequence (Q2TB90 whole entry): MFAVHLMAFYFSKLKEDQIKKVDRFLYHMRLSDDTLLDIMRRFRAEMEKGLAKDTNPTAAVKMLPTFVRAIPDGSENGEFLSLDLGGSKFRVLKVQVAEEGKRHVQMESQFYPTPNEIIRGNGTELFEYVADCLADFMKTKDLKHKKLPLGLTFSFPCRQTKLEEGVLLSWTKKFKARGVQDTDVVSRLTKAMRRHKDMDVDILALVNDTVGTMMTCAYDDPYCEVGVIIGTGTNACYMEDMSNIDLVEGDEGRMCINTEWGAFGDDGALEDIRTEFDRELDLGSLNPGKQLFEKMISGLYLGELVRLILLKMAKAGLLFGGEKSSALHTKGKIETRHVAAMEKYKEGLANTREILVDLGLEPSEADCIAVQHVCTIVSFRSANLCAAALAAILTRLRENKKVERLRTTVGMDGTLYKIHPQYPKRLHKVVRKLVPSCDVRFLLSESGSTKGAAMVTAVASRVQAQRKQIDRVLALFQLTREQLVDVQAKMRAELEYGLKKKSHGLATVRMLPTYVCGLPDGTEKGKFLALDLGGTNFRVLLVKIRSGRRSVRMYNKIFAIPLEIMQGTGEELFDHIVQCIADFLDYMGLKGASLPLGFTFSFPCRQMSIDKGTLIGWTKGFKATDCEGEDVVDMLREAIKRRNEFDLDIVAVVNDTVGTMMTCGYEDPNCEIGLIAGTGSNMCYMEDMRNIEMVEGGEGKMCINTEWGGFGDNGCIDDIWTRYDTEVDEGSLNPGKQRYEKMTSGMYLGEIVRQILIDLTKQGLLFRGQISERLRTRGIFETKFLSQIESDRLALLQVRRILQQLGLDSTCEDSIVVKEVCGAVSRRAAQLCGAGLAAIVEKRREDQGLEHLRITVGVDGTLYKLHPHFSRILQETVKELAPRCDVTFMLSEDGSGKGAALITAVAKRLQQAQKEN

Hexokinase-1 = target: T4, Hexokinase-1 (Homo sapiens, UniProt P19367); assay: SAR analysis of small molecule inhibitors of hexokinase domain containing I (HKDC1) in the hexokinase 1 selectivity assay. [Related pubchem assays (depositor defined):AID493160, AID493190]; assay type: functional
T4 sequence (P19367 whole entry): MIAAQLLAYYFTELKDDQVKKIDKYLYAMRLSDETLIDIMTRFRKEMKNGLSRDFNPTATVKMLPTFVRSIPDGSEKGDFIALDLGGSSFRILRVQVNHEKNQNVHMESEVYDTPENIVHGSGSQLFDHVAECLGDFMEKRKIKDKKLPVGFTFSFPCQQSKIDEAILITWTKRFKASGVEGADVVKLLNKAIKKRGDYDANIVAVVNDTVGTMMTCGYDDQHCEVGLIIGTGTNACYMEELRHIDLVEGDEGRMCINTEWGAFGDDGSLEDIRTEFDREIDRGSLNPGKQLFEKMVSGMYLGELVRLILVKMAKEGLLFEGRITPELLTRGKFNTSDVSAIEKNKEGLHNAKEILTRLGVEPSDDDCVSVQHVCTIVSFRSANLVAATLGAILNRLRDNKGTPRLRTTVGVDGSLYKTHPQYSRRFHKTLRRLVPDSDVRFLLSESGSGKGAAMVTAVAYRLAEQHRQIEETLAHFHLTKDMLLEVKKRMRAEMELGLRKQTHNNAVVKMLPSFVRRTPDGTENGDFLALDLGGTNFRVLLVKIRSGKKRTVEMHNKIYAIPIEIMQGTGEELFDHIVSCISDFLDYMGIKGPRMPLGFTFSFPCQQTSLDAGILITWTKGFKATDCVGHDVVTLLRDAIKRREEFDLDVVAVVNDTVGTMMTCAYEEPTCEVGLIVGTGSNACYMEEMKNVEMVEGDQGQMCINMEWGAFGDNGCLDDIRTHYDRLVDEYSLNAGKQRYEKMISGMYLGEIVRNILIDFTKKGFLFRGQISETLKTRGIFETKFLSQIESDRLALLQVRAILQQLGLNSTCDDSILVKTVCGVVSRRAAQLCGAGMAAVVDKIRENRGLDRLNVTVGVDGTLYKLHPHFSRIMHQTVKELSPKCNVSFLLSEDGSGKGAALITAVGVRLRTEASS

BJ [13] = assay: cells; assay type: functional, cell-based; details: Homo sapiens
[14] = Trypanosoma cruzi growth suppression in host cells – NIH3T3 host cells, beta-gal luminescence, confirmation (AID 2044); assay type: functional, cell-based;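 further: intracellular parasites grown in NIH/3T3 mouse fibroblasts as host cells; luminescent beta-galactosidase reporter signal from transgenic T. cruzi replicating inside host cells; inhibitors lower the luminescence signal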
[15] = tested on: Streptococcus sp. 'group A'; assay: Streptococcus pyogenes SK(-)GAS viability under kanamycin – luminescence, BacTiterGlo, confirmation, counter-screen for streptokinase expression inhibitor project, dose response (AID 1900); assay type: functional, organism-based
[16] = DRD fibroblast viability loss – cell-based, non-viral oncogenic, luminescence, dose response (AID 1934); assay type: functional; details: Homo sapiens
INS1 = assay: INS-1E survival protection against cytokine death – cell-based, luminescence, retest, dose response (AID 449756); assay type: functional; details: Rattus norvegicus;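 further: cell death triggered by IL-1 beta plus TNF-alpha plus IFN-gamma mixture; protective hits raise ATP signal compared with cytokine alone wells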
BJ [17] = assay: BJ-TERT fibroblast viability loss – cell-based, RAS-independent, luminescence, dose response (AID 1933); assay type: functional; details: Homo sapiens
BJ [18] = assay: BJ-TERT-LT-ST fibroblast viability loss – cell-based, RAS-independent, luminescence, dose response (AID 1935); assay type: functional; details: Homo sapiens;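 further: BJ fibroblasts immortalized with TERT plus LT and ST oncogenes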
[19] = NIH3T3 cell viability loss – ATP luminescence, mouse fibroblasts, counter-screen, dose response (AID 2010); assay type: functional, cell-based;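 further: cells exposed to compound for about 90 hours before reading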
Streptokinase A = target: T5, Streptokinase A (Streptococcus pyogenes serotype M1, UniProt P10520); assay: viability-normalized secreted streptokinase activity reduction – plasminogen activation absorbance, OD405, dose response (AID 1914); assay type: functional, Streptococcus pyogenes M1 GAS;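 further: secreted streptokinase activity via plasminogen activation per viability signal from cell pellet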
T5 sequence (P10520 whole entry): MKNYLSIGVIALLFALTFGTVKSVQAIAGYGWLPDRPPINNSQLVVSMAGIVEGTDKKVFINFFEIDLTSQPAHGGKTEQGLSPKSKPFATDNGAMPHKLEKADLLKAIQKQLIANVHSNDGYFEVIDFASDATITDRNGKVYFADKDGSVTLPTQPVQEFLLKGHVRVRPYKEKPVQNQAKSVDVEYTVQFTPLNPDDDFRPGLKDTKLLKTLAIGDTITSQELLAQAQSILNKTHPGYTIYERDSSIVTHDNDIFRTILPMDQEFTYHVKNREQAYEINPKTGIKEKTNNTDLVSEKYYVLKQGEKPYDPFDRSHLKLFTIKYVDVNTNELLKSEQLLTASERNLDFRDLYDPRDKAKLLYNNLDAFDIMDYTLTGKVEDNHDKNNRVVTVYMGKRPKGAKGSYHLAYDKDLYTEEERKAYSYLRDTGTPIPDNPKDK

Streptococcus = assay: GAS UMAA2166 growth inhibition – luminescence, BacTiterGlo, counter-screen for streptokinase expression inhibitor project, dose response (AID 1915); assay type: functional, organism-based;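 further: potency for reduction of bacterial viability or growth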

## COc1ccc(C(=O)C[n+]2ccc3ccccc3c2C)cc1
[1]
  EC50: 0.646 µM (active)
H4
  EC50: > 120 µM (not active)
[2]
  EC50: 0.375 µM (active)
[3]
  IC50: > 67.5 µM (inactive)
[4]
  EC50: 0.402 µM (active)
[5]
  EC50: 0.235 µM (active)
[6]
  EC50: < 0.1 µM (active)
HEK293
  IC50: > 67.5 µM (inactive)

## O=C(NNC(=S)NC(=O)c1ccc(Br)cc1)c1ccc([N+](=O)[O-])cc1
[7]
  EC50: > 160 µM (inconclusive)
[8]
  EC50: 5.32 µM (active)
[9]
  IC50: 5.63 µM (active)
[10]
  EC50: > 180 µM (inactive)
[11]
  EC50: 0.198 µM (active)
[12]
  EC50: > 160 µM (inactive)

## O=C(Nc1nnc(SCc2ccccc2)s1)c1ccc2ncsc2c1
Hexokinase HKDC1
  IC50: > 80 µM (inactive)
Hexokinase-1
  IC50: > 80 µM (inactive)

## O=C(CSC(=S)N1CCCCC1)c1c(F)cccc1F
[3]
  IC50: > 67.5 µM (inactive)
HEK293
  IC50: > 67.5 µM (inactive)

## Nc1nonc1-n1nnc(C(=O)N/N=C/c2cc(Cl)ccc2O)c1CN1CCCCCC1
BJ [13]
  EC50: 115 µM (active)
[7]
  EC50: 29.6 µM (active)
[14]
  EC50: 1.39 µM (active)
[15]
  EC50: 4.87 µM (active)
[16]
  EC50: 55.4 µM (active)
[10]
  EC50: > 180 µM (inactive)
INS1
  AC50: 1.85 µM (active)
BJ [17]
  EC50: 24.9 µM (active)
[11]
  EC50: 0.296 µM (active)
[12]
  EC50: > 150 µM (inactive)
BJ [18]
  EC50: > 75 µM (not active)
[19]
  EC50: 6.91 µM (active)
Streptokinase A
  EC50: > 150 µM (not active)
Streptococcus
  EC50: 20.4 µM (active)
